This is an account of results in ChEMBL document CHEMBL3763039, “Development and Characterization of Potent Cyclic Acyldepsipeptide Analogues with Increased Antimicrobial Activity” (2016).

In brackets after ≈: the same amount, converted by molar mass. Where a SMILES comes first, the peptide text is derived from it. Bridges are numbered along the chain shown (N, C = ends). [ ]: non-standard residue; d: D form. The star is where a group is joined. Phe(3,5-F2) = N[C@@H](Cc1cc(F)cc(F)c1)C(=O)O; Pro(4R-Me) = C[C@H]1CN[C@H](C(=O)O)C1; aThr = C[C@H](O)[C@H](N)C(=O)O; Pip = O=C(O)[C@@H]1CCCCN1; NMeA = CN[C@@H](C)C(=O)O; X1 = CCC/C=C/C=C/C(=O)*

What all share (type): functional
For assay [1], the system named is Neisseria meningitidis. Briefly: Antibacterial activity against Neisseria meningitidis H44/76 incubated for 16 to 18 hrs by broth microdilution method.
The subject of the next assay is Enterococcus faecalis. Briefly: Antibacterial activity against vancomycin-resistant Enterococcus faecalis V583 incubated for 16 to 18 hrs by broth microdilution method. (In general: Broth dilution looks for growth in wells or tubes with falling amounts of substance.)
The next assay has as its system Streptococcus pneumoniae. Briefly: Antibacterial activity against Streptococcus pneumoniae D39 incubated for 16 to 18 hrs by broth microdilution method.
Assay [2] relates to Escherichia coli. Briefly: Antibacterial activity against Escherichia coli MC4100 incubated for 16 to 18 hrs by broth microdilution method.
The test system of a further assay is Neisseria gonorrhoeae. Briefly: Antibacterial activity against chloramphenicol-resistant Neisseria gonorrhoeae N.279 incubated for 16 to 18 hrs by broth microdilution method.
In the next assay the test system is Pseudomonas aeruginosa. Briefly: Antibacterial activity against Pseudomonas aeruginosa PAO1 incubated for 16 to 18 hrs by broth microdilution method.
Another assay relates to Listeria innocua. The experiment in a line: Antibacterial activity against Listeria innocua incubated for 16 to 18 hrs by broth microdilution method.
Assay [3] relates to Escherichia coli. The experiment in a line: Antibacterial activity against Escherichia coli MC4100 expressing lptD-4213 incubated for 16 to 18 hrs by broth microdilution method.
In assay [4] the test system is Staphylococcus aureus. The experiment in a line: Antibacterial activity against Staphylococcus aureus subsp. aureus Newman clinical isolate incubated for 16 to 18 hrs by broth microdilution method.
The test system of a further assay is Bacillus subtilis. The experiment in a line: Antibacterial activity against Bacillus subtilis PY79 incubated for 16 to 18 hrs by broth microdilution method.
The test system of assay [5] is Neisseria meningitidis. Briefly: Antibacterial activity against clpP deficient Neisseria meningitidis H44/76 incubated for 16 to 18 hrs by broth microdilution method.
The test system of assay [6] is Staphylococcus aureus. The experiment in a line: Antibacterial activity against Staphylococcus aureus ATCC 29213 incubated for 16 to 18 hrs by broth microdilution method.
The test system of assay [7] is Staphylococcus aureus. The experiment in a line: Antibacterial activity against methicillin-resistant Staphylococcus aureus 1784A incubated for 16 to 18 hrs by broth microdilution method.

For orientation: MIC means the lowest concentration that inhibits growth of the organism. Higher therefore signals a need for much substance. Turning to `CCC/C=C/C=C/C(=O)N[C@@H](Cc1ccccc1)C(=O)N[C@H]1COC(=O)[C@@H]2C[C@@H](C)CN2C(=O)[C@H](C)NC(=O)[C@H](C)N(C)C(=O)[C@@H]2CCCN2C1=O` (X1-FSP[NMeA]A[Pro(4R-Me)]; ester 2-C), the MIC is 0.0313 µg/mL (≈ 0.0434 µM) in the assay with Neisseria meningitidis [1]; 0.125 µg/mL (≈ 0.173 µM) in the assay on Enterococcus faecalis; ≤ 0.0625 µg/mL in the assay on Streptococcus pneumoniae; > 128 µg/mL with Escherichia coli [2]; 0.0156 µg/mL (≈ 0.0216 µM) in the assay on Neisseria gonorrhoeae; > 128 µg/mL against Pseudomonas aeruginosa. Also, the MIC in the assay with Listeria innocua was ≤ 0.0625 µg/mL; in the assay on Escherichia coli [3], > 128 µg/mL; against Staphylococcus aureus [4] it was 0.25 µg/mL (≈ 0.347 µM); in the assay with Bacillus subtilis, 0.125 µg/mL (≈ 0.173 µM); against Neisseria meningitidis [5], > 128 µg/mL; in the assay on Staphylococcus aureus [6], 0.5 µg/mL (≈ 0.694 µM). Inhibition of growth against Staphylococcus aureus [7] (MIC) required 0.5 µg/mL (≈ 0.694 µM).

As to `CCCC/C=C/C(=O)N[C@@H](Cc1cc(F)cc(F)c1)C(=O)N[C@@H]1C(=O)N2CCC[C@H]2C(=O)N2CC[C@H](C)C[C@H]2C(=O)N[C@@H](C)C(=O)N2C[C@H](C)C[C@H]2C(=O)O[C@H]1C`, the MIC against Neisseria meningitidis [1] was 0.0625 µg/mL (≈ 0.0782 µM); with Enterococcus faecalis, 0.0156 µg/mL (≈ 0.0195 µM); against Streptococcus pneumoniae, ≤ 0.0625 µg/mL; against Escherichia coli [2], > 128 µg/mL; against Neisseria gonorrhoeae, 0.125 µg/mL (≈ 0.156 µM); in the assay on Pseudomonas aeruginosa it was > 128 µg/mL. The minimum inhibitory concentration (MIC) was ≤ 0.0625 µg/mL with Listeria innocua; > 128 µg/mL against Escherichia coli [3]; 0.25 µg/mL (≈ 0.313 µM) in the assay on Staphylococcus aureus [4]; ≤ 0.0625 µg/mL with Bacillus subtilis; > 128 µg/mL against Neisseria meningitidis [5]; 0.0078 µg/mL (≈ 0.00976 µM) in the assay on Staphylococcus aureus [6]. Besides, the minimum inhibitory concentration (MIC) in the assay on Staphylococcus aureus [7] worked out at 8 µg/mL (≈ 10 µM).

Turning to `C[C@@H]1C[C@H]2C(=O)O[C@@H](C)[C@H](NC(=O)[C@H](Cc3cc(F)cc(F)c3)NC(=O)/C=C/CC3CCCCC3)C(=O)N3CCC[C@H]3C(=O)N3CCCC[C@H]3C(=O)N[C@@H](C)C(=O)N2C1`, the MIC against Neisseria meningitidis [1] is 0.0625 µg/mL (≈ 0.0758 µM); in the assay with Enterococcus faecalis, 0.0078 µg/mL (≈ 0.00945 µM); against Streptococcus pneumoniae, 0.0625 µg/mL (≈ 0.0758 µM); in the assay with Escherichia coli [2], > 128 µg/mL; in the assay on Neisseria gonorrhoeae, 0.125 µg/mL (≈ 0.152 µM); in the assay with Pseudomonas aeruginosa, > 128 µg/mL. The MIC against Listeria innocua is ≤ 0.0625 µg/mL; in the assay on Escherichia coli [3], > 128 µg/mL; against Staphylococcus aureus [4], 0.0625 µg/mL (≈ 0.0758 µM); in the assay on Bacillus subtilis it was ≤ 0.0625 µg/mL; against Neisseria meningitidis [5], > 128 µg/mL; in the assay with Staphylococcus aureus [6], 0.0078 µg/mL (≈ 0.00945 µM). The compound also returned an MIC against Staphylococcus aureus [7] of 0.125 µg/mL (≈ 0.152 µM).

With `CCC/C=C/C=C/C(=O)N[C@@H](Cc1cc(F)cc(F)c1)C(=O)N[C@@H]1C(=O)N2CCC[C@H]2C(=O)N2CCCC[C@H]2C(=O)N[C@@H](C)C(=O)N2C[C@H](C)C[C@H]2C(=O)O[C@H]1C` (X1-[Phe(3,5-F2)][aThr]P[Pip]A[Pro(4R-Me)]; ester 2-C), the MIC was 0.0313 µg/mL (≈ 0.0393 µM) against Neisseria meningitidis [1]; 0.0039 µg/mL (≈ 0.00489 µM) against Enterococcus faecalis; ≤ 0.0625 µg/mL against Streptococcus pneumoniae; > 128 µg/mL in the assay with Escherichia coli [2]; 0.0078 µg/mL (≈ 0.00979 µM) against Neisseria gonorrhoeae; > 128 µg/mL against Pseudomonas aeruginosa. Besides, the MIC in the assay on Listeria innocua is ≤ 0.0625 µg/mL; in the assay on Escherichia coli [3], 4 µg/mL (≈ 5.02 µM); in the assay on Staphylococcus aureus [4], 0.0625 µg/mL (≈ 0.0784 µM); against Bacillus subtilis, ≤ 0.0625 µg/mL; against Neisseria meningitidis [5] it was > 128 µg/mL; against Staphylococcus aureus [6], 0.0019 µg/mL (≈ 0.00238 µM). The compound also yielded a minimal inhibitory concentration (MIC) in the assay on Staphylococcus aureus [7] of 0.125 µg/mL (≈ 0.157 µM).

In the case of `O=C(N[C@H](CO)[C@H](O)c1ccc([N+](=O)[O-])cc1)C(Cl)Cl` [CHLORAMPHENICOL], the minimum inhibitory concentration (MIC) was 0.5 µg/mL (≈ 1.55 µM) with Neisseria meningitidis [1]; 3.1 µg/mL (≈ 9.59 µM) in the assay with Escherichia coli [2]; 64 µg/mL (≈ 198 µM) with Neisseria gonorrhoeae; 8 µg/mL (≈ 24.8 µM) with Pseudomonas aeruginosa; 2 µg/mL (≈ 6.19 µM) in the assay on Escherichia coli [3]; 1 µg/mL (≈ 3.09 µM) with Neisseria meningitidis [5].

For `CCCC/C=C/C(=O)N[C@@H](Cc1cc(F)cc(F)c1)C(=O)N[C@@H]1C(=O)N2CCC[C@H]2C(=O)N2CCCC[C@H]2C(=O)N[C@@H](C)C(=O)N2C[C@H](C)C[C@H]2C(=O)O[C@H]1C`, the minimum inhibitory concentration (MIC) is 0.0625 µg/mL (≈ 0.0796 µM) in the assay with Neisseria meningitidis [1]; 0.0078 µg/mL (≈ 0.00994 µM) in the assay on Enterococcus faecalis; ≤ 0.0625 µg/mL with Streptococcus pneumoniae; > 128 µg/mL in the assay on Escherichia coli [2]; 0.0625 µg/mL (≈ 0.0796 µM) with Neisseria gonorrhoeae; > 128 µg/mL against Pseudomonas aeruginosa. The minimal inhibitory concentration (MIC) with Listeria innocua was ≤ 0.0625 µg/mL; in the assay on Escherichia coli [3] it was > 128 µg/mL; in the assay with Staphylococcus aureus [4] it was 0.0625 µg/mL (≈ 0.0796 µM); in the assay with Bacillus subtilis, ≤ 0.0625 µg/mL; in the assay on Neisseria meningitidis [5], > 128 µg/mL; in the assay on Staphylococcus aureus [6], 0.0039 µg/mL (≈ 0.00497 µM). 0.125 µg/mL (≈ 0.159 µM) was the least that counted as inhibitory in the assay with Staphylococcus aureus [7] (MIC).
